PMC10509173, “Deep learning driven de novo drug design based on gastric proton pump structures” (Communications Biology, 2023)
Values joined by “and” are separate entries in the source; they are usually repeats but may differ in a detail not shown here. Equal entries are not always repeated.

Biological target: H+,K+-ATPase (Sus scrofa, UniProt P19156)
Test: Dose-dependent inhibition of H+,K+-ATPase activity, membrane fractions
Conditions: for H+,K+-ATPase activity, raw data of dose-dependent inhibition: single replicate values
[1] = [PCAB] -3.30103 (log, unit not given)
[2] = [PCAB] -3.52288 (log, unit not given)
[3] = [PCAB] -4 (log, unit not given)
[4] = [PCAB] -4.30103 (log, unit not given)
[5] = [PCAB] -4.52288 (log, unit not given)
[6] = [PCAB] -5 (log, unit not given)
[7] = [PCAB] -5.52288 (log, unit not given)
[8] = [PCAB] -6 (log, unit not given)
[9] = [PCAB] -6.30103 (log, unit not given)
[10] = [PCAB] -7 (log, unit not given)
[11] = [PCAB] -8 (log, unit not given)
[12] = [PCAB] -11 (log, unit not given; possibly placeholder for no compound)

Sequence of H+,K+-ATPase (P19156 2-1034 limits assumed): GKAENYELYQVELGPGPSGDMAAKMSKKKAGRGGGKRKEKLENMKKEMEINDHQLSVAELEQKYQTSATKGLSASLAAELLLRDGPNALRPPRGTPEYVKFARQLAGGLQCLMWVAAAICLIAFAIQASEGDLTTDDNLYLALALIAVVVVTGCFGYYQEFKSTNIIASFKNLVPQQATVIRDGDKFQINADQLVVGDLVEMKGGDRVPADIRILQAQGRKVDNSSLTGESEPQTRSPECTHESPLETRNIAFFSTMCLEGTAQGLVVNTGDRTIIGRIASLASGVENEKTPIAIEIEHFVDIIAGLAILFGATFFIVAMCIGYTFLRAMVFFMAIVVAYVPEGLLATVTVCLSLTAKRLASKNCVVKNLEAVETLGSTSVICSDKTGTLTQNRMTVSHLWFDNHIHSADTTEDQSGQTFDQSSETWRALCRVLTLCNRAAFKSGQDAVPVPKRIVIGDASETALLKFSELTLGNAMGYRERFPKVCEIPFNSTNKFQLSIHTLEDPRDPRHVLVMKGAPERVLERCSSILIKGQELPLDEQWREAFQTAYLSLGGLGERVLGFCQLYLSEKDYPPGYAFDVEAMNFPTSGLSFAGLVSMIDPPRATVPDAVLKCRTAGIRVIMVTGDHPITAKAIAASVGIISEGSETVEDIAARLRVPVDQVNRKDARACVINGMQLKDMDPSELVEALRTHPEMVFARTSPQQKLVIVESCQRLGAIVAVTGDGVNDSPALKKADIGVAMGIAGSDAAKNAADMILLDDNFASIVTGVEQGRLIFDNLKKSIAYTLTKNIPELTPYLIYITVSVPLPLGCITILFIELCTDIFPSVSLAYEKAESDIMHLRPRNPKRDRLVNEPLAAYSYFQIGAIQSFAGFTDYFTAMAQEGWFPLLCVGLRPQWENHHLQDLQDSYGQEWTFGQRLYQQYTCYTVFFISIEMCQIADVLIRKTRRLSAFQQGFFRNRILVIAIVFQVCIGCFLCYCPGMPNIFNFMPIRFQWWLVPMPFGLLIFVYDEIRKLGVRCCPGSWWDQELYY
Sequence of H+,K+-ATPase (P18434 whole entry partner): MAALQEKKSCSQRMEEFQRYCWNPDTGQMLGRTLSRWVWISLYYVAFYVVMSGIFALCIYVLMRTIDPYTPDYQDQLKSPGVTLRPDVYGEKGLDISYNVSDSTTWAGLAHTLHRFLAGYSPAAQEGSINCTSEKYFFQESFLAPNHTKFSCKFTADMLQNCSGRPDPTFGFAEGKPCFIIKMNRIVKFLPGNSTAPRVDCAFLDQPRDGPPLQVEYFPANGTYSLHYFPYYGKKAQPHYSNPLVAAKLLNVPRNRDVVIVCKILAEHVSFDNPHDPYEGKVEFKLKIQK

SMILES | IC50 | H+,K+-ATPase activity, raw data of dose-dependent inhibition [1] | H+,K+-ATPase activity, raw data of dose-dependent inhibition [2] | H+,K+-ATPase activity, raw data of dose-dependent inhibition [3] | H+,K+-ATPase activity, raw data of dose-dependent inhibition [4] | H+,K+-ATPase activity, raw data of dose-dependent inhibition [5] | H+,K+-ATPase activity, raw data of dose-dependent inhibition [6] | H+,K+-ATPase activity, raw data of dose-dependent inhibition [7] | H+,K+-ATPase activity, raw data of dose-dependent inhibition [8] | H+,K+-ATPase activity, raw data of dose-dependent inhibition [9] | H+,K+-ATPase activity, raw data of dose-dependent inhibition [10] | H+,K+-ATPase activity, raw data of dose-dependent inhibition [11] | H+,K+-ATPase activity, raw data of dose-dependent inhibition [12] | also measured
CNCC#CCOCc1cc(Cl)ccc1-c1ccc(Cl)c(F)c1 [DQ-04] | 33.9 ± 3.8 µM | 0.25 and -0.25 and -0.38 and 0.38 and -0.3 and -3.39 | 1.96 and 3.36 and 3.54 and 3.3 and 3.08 and 0.78 | 36.71 and 36.26 and 38.13 and 35.18 and 35.01 and 32.77 | 44 and 42.16 and 21.74 and 21.63 and 20.87 and 17.27 | 54.64 and 55.71 and 47.64 and 52.61 and 61.59 and 63.39 | 84.91 and 81.14 and 76.84 and 80.91 and 85.5 and 81.75 | 98.14 and 98.72 and 86.17 and 97.35 and 92.86 and 93.01 | 100.43 and 99.64 (2×) and 95.5 and 94.06 and 98.22 | 97.37 and 99.94 and 104.98 and 87.87 and 104.85 and 101.28 | 98.23 and 101.36 and 99.76 and 99.57 and 100.69 and 98.11 | 101.57 and 100.61 and 99.59 and 102.17 and 101.49 and 97.6 | 101.41 and 100.27 and 102.04 and 101.19 and 98.33 and 99.11 | –
CNCc1ccc(OCc2cc(Cl)ccc2OCc2ccc(Cl)cc2)c(Cl)c1 [DQ-07] | 3.2 ± 0.2 µM | 0.27 and 0.6 and 3.27 and 8.56 and 2.84 and 6.16 | -0.35 and -0.17 and 2.58 and 2.95 and 2.71 and 3.29 | -1.84 and -1.63 and 1.31 and 1.18 and 1.05 and 1.62 | -1.84 and -1.6 and 2.69 and 2.52 and 2.83 and 2.8 | -1.24 and -1.47 and 3.31 and 3.19 and 3.75 and 3.57 | 4.55 and 4.67 and 12.66 and 12.06 and 13.24 and 12.08 | 45.69 and 44.11 and 51.61 and 59.03 and 63.14 and 61.87 | 84.95 (2×) and 82.82 and 90.61 and 90.08 and 95.69 | 90.87 and 90.7 and 95.03 and 96.7 and 92.33 and 94.31 | 96.69 and 96.52 and 102.14 and 98.38 and 97.9 and 99.91 | 96.57 and 99.63 and 102.72 and 99.81 and 97.87 and 101.66 | 100.45 and 97.72 and 103.9 and 100.73 and 98.44 and 100.87 | –
NCc1ccc(OCc2ccccc2OCc2ccccc2)cc1 [DQ-12] | 1.54 ± 0.07 µM | -2.13 and -5.12 and -1.35 and 1.97 and -1.31 and 0.69 | -0.8 and -0.12 and -1.95 (2×) and -1.32 and -0.19 | 0.73 and 0 and -0.35 and -0.11 and -0.2 and 0.01 | 3.34 and 3.14 and -0.81 and -0.94 and -0.85 and -0.15 | 5.83 and 5.43 and 5.22 and 6.02 and 6.1 and 5.29 | 14.6 and 14.36 and 13.48 and 12.93 and 13.73 and 12.81 | 35.47 and 34.66 and 35.13 and 34.7 and 33.05 and 34.53 | 63.22 and 63.5 and 59.87 and 57.62 and 57.1 and 58.43 | 74.96 and 75.04 and 76.55 and 75.62 and 74.4 and 76.41 | 91.01 and 87.51 and 98.57 and 99.1 and 95.69 and 97.51 | 96.05 and 93.52 and 100.03 and 97.19 and 98.53 and 98.62 | 97.64 and 96.4 and 100.03 and 99.55 and 98.47 and 102.15 | –

Continued, in another order:

IC50 | SMILES | H+,K+-ATPase activity, raw data of dose-dependent inhibition [1] | H+,K+-ATPase activity, raw data of dose-dependent inhibition [2] | H+,K+-ATPase activity, raw data of dose-dependent inhibition [3] | H+,K+-ATPase activity, raw data of dose-dependent inhibition [4] | H+,K+-ATPase activity, raw data of dose-dependent inhibition [5] | H+,K+-ATPase activity, raw data of dose-dependent inhibition [6] | H+,K+-ATPase activity, raw data of dose-dependent inhibition [7] | H+,K+-ATPase activity, raw data of dose-dependent inhibition [8] | H+,K+-ATPase activity, raw data of dose-dependent inhibition [9] | H+,K+-ATPase activity, raw data of dose-dependent inhibition [10] | H+,K+-ATPase activity, raw data of dose-dependent inhibition [11] | H+,K+-ATPase activity, raw data of dose-dependent inhibition [12] | also measured
> 2000 µM | CNCC#CCn1ccnc1NC(=O)c1ccccc1 [DQ-09] | – | – | – | – | – | – | – | – | – | – | – | 99.26 and 98.65 and 101.5 and 98.45 and 98.97 and 101.13 | H+,K+-ATPase activity, raw data of dose-dependent inhibition ([PCAB] -3.455 (log, unit not given)): 63.11 and 66.04 and 91.33 and 94.1 and 93.4 and 93.07; H+,K+-ATPase activity, raw data of dose-dependent inhibition ([PCAB] -3.67685 (log, unit not given)): 81.52 and 80.18 and 94.54 and 95.44 and 96.5 and 95.18; H+,K+-ATPase activity, raw data of dose-dependent inhibition ([PCAB] -4.15397 (log, unit not given)): 92.95 and 94.76 and 92.15 and 93.44 and 92.03 and 93.77; H+,K+-ATPase activity, raw data of dose-dependent inhibition ([PCAB] -4.455 (log, unit not given)): 99 and 99.88 and 97.42 and 97.61 and 95.39 and 91.33; H+,K+-ATPase activity, raw data of dose-dependent inhibition ([PCAB] -4.67685 (log, unit not given)): 97.65 and 97.31 and 107.67 and 103.09 and 98.87 and 105.02; H+,K+-ATPase activity, raw data of dose-dependent inhibition ([PCAB] -5.15397 (log, unit not given)): 99.93 and 96.29 and 97.51 and 98.34 and 88.34 and 93.86; H+,K+-ATPase activity, raw data of dose-dependent inhibition ([PCAB] -5.67685 (log, unit not given)): 101.49 and 99.52 and 93.88 and 106.02 and 103.98 and 106.05; H+,K+-ATPase activity, raw data of dose-dependent inhibition ([PCAB] -6.15397 (log, unit not given)): 99.11 and 99.53 and 98.71 and 99.47 and 95.43 and 99.9; H+,K+-ATPase activity, raw data of dose-dependent inhibition ([PCAB] -7.00046 (log, unit not given)): 100.13 and 101.44 and 98.87 and 102.62 and 97 and 100.92; H+,K+-ATPase activity, raw data of dose-dependent inhibition ([PCAB] -7.15397 (log, unit not given)): 100.4 and 99.7 and 97.72 and 99.58 and 95.86 and 98.79; H+,K+-ATPase activity, raw data of dose-dependent inhibition ([PCAB] -8.15397 (log, unit not given)): 99.08 and 99.65 and 97.54 and 97.72 and 99.14 and 96.06
292 ± 67 µM | OCc1ccc(OCc2ccccc2OCc2ccccc2)cc1 [DQ-10] | 43.38 and 44.41 and 45.92 and 45.13 and 45.42 and 45.93 | 45.74 and 44.58 and 47.45 and 47.39 and 47.18 and 50.77 | 56.05 and 53.52 and 55.98 and 54.18 and 54.88 and 57.9 | 76.31 and 75.72 and 105.39 and 105.73 and 101.62 and 104.74 | 93.17 and 93.5 and 97.58 and 97.31 and 105.67 and 98.13 | 105.05 and 103.17 and 107.45 and 104.86 and 105.64 and 102 | 97.45 and 97.17 and 101.99 and 103.63 and 102.59 and 100.01 | 100.27 and 101.99 and 106.56 and 102.96 and 101.68 and 100.85 | 96.05 and 88 and 94.05 and 95.4 and 97.95 and 97.13 | 93.18 and 94.04 and 98.08 and 97.4 and 96.62 and 95.63 | 97.94 and 95.96 and 97.5 and 99.04 and 99.69 and 102.43 | 97.84 and 98.7 and 100.06 and 101.42 and 100.78 and 96 | –
5.57 ± 0.45 µM | CN(C)Cc1ccc(OCc2ccccc2OCc2ccccc2)cc1 [DQ-11] | -9.05 and -9.17 and -0.38 and -0.55 and 0.75 and 0.18 | -7.01 and -7.07 and 0.86 and 1.01 and 0.22 and 0.76 | 0.73 and 0.95 and 7.54 and 7.57 and 6.64 and 7.22 | 5.75 and 5.69 and 7.96 (2×) and 7.99 and 7.73 | 10.92 and 10.91 and 16.8 and 13.24 and 16.06 and 16.58 | 34.05 and 32.3 and 39.91 and 37.9 and 37.76 and 40.04 | 63.88 and 61.74 and 70.3 and 67.49 and 63.1 and 68.35 | 89.53 and 87.88 and 83.74 and 79.92 and 83.72 and 84.81 | 90.62 and 87.46 and 94.24 and 93.36 and 93.48 and 92.73 | 95.63 and 90.8 and 99.34 and 102.28 and 88.88 and 100.71 | 97.6 and 94.94 and 102 and 102.29 and 100.82 and 103.84 | 102.26 and 95.06 and 98.26 and 100.19 and 96.56 and 106.72 | –
> 120 µM | CNCC#CCn1ccc2cccc(C#Cc3ccccc3)c21 [DQ-14] | 27.73 and 26.74 and 25.35 and 26.06 | 28.44 and 23.96 and 24.12 and 24.35 | 60.7 and 61.39 and 60.36 and 56.79 | 84.92 and 80.56 and 95.68 and 93.2 and 92.03 and 93.46 | 87.04 and 84.8 and 98.89 and 98.98 and 99.17 and 99.96 | 106.23 and 102.41 and 111.55 and 99.92 and 109.43 and 110.94 | 106.37 and 107.48 and 116.43 and 116.24 and 113.84 and 116.41 | 99.88 and 98.19 and 102.47 and 100.9 and 103.05 and 104.28 | 101.13 and 91.4 and 101.1 and 101.3 | 93.06 and 99.72 and 100.85 and 100.56 and 98.57 | 95.47 and 97.96 and 97.95 and 99.07 and 96.42 and 98.64 | 103.16 and 99.44 and 101.23 and 99.08 and 99.88 and 99.77 | –
